Test results taken from ChEMBL document CHEMBL3784990, “Synthesis and in vitro anticancer evaluation of some 4,6-diamino-1,3,5-triazine-2-carbohydrazides as Rad6 ubiquitin conjugating enzyme inhibitors” (Bioorg Med Chem Lett, 2016).
The source made the active and inactive calls. No cut-off for these calls is given here.

What was measured:
[1] = Cytotoxicity against human OV90 cells after 72 hrs by MTS assay; type: functional, cell-based; conditions: OV-90, 72 h
A2780 = test: Cytotoxicity against human A2780 cells after 72 hrs by MTS assay; type: functional, cell-based; conditions: A2780, 72 h
MCF7 = test: Cytotoxicity against human MCF7 cells after 72 hrs by MTS assay; type: functional, cell-based; conditions: MCF7, 72 h
MDA-MB-231 = test: Cytotoxicity against human MDA-MB-231 cells after 72 hrs by MTS assay; type: functional, cell-based; conditions: MDA-MB-231, 72 h
A549 = test: Cytotoxicity against human A549 cells after 72 hrs by MTS assay; type: functional, cell-based; conditions: A549, 72 h
[2] = Cytotoxicity against human H1299 cells after 72 hrs by MTS assay; type: functional, cell-based; conditions: NCI-H1299, 72 h
HT-29 = test: Cytotoxicity against human HT-29 cells after 72 hrs by MTS assay; type: functional, cell-based; conditions: HT-29, 72 h
[3] = target: Ubiquitin-conjugating enzyme E2 B (Homo sapiens) (UniProt P63146); test: Inhibition of human recombinant Rad6B assessed as suppression of Rad6B conjugation to ubiquitin at 25 nM pre-incubated for 1 hr by Western blot analysis
[4] = target: Ubiquitin-conjugating enzyme E2 B (Homo sapiens) (UniProt P63146); test: Inhibition of human recombinant Rad6B assessed as suppression of H2A substrate ubiquitination at 25 nM pre-incubated for 1 hr before H2A addition by Western blot analysis

Ubiquitin-conjugating enzyme E2 B (Homo sapiens), sequence (P63146 whole entry): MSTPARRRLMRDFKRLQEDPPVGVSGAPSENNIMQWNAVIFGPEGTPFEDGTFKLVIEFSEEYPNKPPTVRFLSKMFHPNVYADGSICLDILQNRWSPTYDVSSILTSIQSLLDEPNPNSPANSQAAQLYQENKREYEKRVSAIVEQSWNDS

Compound	IC50 [1] [µM]	IC50 (A2780) [µM]	IC50 (MCF7) [µM]	IC50 (MDA-MB-231) [µM]	IC50 (A549) [µM]	IC50 [2] [µM]	IC50 (HT-29) [µM]	inhibition [3]	inhibition [4]
Cc1ccc(Nc2nc(N)nc(C(=O)NN)n2)cc1	60	5.5	16	12.7	9.3	40	4.5	Active	–
COc1ccc(Nc2nc(N)nc(C(=O)NN)n2)cc1	80	14.7	6.2	7.6	5.2	65	5.4	Active	–
COc1ccccc1Nc1nc(N)nc(C(=O)NN)n1	90	5.6	11.8	15.7	7.5	50	8.6	Active	–
Cc1ccc(Nc2nc(Nc3ccc(C)cc3)nc(C(=O)NNc3ccccc3)n2)cc1	5	3.6	4.2	3.5	11.6	22	5.2	Active	Active
COc1ccccc1Nc1nc(Nc2ccccc2OC)nc(C(=O)NNc2ccccc2)n1	10	5	7.2	3.9	6.9	26	8.9	Active	–
NNC(=O)c1nc(N)nc(Nc2ccc(Cl)cc2)n1	85	36.6	8.8	24.6	7.5	30	4.6	Active	–
O=C(NNc1ccccc1)c1nc(Nc2ccc(Cl)cc2)nc(Nc2ccc(Cl)cc2)n1	60	8.2	4.2	3.5	7.8	15	4.1	Active	Active
O=C(NNc1ccccc1)c1nc(Nc2ccccc2)nc(Nc2ccccc2)n1	8	7.1	6	2.5	14.6	11	9.5	Active	Active
COc1ccc(Nc2nc(Nc3ccc(OC)cc3)nc(C(=O)NNc3ccccc3)n2)cc1	12	6.3	7.2	4.2	10.8	5	5.8	Active	Active
NNC(=O)c1nc(N)nc(Nc2ccccc2)n1	75	7.3	5.9	2.6	7.8	65	3.3	Active	–
Nc1nc(COC(=O)c2ccc([N+](=O)[O-])cc2)nc(Nc2ccccc2)n1	60	7.8	5	4.6	7.2	45	8.3	Active	Active
